Source: patent US8530381B2, “Active compound combinations” (Bayer CropScience AG, priority 2009, dated 2013)

Key:
[1] = tested on: Pyrenophora teres; test: Pyrenophora teres-test (barley)/preventive; assay type: in vivo; conditions: preventive spray, evaluated 8 days after inoculation
Experimental: (§1) Here, the efficacy is determined in %. 0% means an efficacy which corresponds to that of the control, whereas an efficacy of 100% means that no infection is observed.
(§2) If the actual fungicidal action exceeds the calculated value, the action of the combination is superadditive, i.e. a synergistic effect is present. In this case, the actually observed efficacy must exceed the value calculated using the above formula for the expected efficacy (E).
Pyrenophora teres-Test (Barley)/Preventive
(§3) Solvent: 49 parts by weight of n,n-dimethylacetamid
(§4) Emulsifier: 1 part by weight of alkylaryl polyglycol ether
(§5) To produce a suitable preparation of active compound, 1 part by weight of active compound or active compound combination is mixed with the stated amounts of solvent and emulsifier, and the concentrate is diluted with water to the desired concentration.
(§6) To test for preventive activity, young plants are sprayed with the preparation of active compound or active compound combination at the stated rate of application.
After the spray coating has been dried, the plants are sprayed with a spore suspension of Pyrenophora teres. The plants remain for 48 hours in an incubation cabinet at approximately 20° C. and a relative atmospheric humidity of approximately 100%. […]
The test is evaluated 8 days after the inoculation. […]

[2] = tested on: Blumeria graminis f.sp. hordei; test: Blumeria-test (barley)/preventive; assay type: in vivo; conditions: preventive spray, application rate 62,5 g/ha, evaluated 7 days after inoculation
Experimental: as §1, §2
Blumeria Test (Barley)/Preventive
as §3, §4, §5, §6
After the spray coating has been dried, the plants are dusted with spores of Blumeria graminis f.sp. hordei.
The plants are placed in the greenhouse at a temperature of approximately 18° C. and a relative atmospheric humidity of approximately 80% to promote the development of mildew pustules.
The test is evaluated 7 days after the inoculation. 0% means an efficacy which corresponds to that of the control, while an efficacy of 100% means that no disease is observed.

SMILES | Efficacy in % found ([1]; application rate 62,5 g/ha) | Efficacy in % found [2] | Efficacy in % found ([1]; application rate 125 g/ha)
CCN(C)/C=N/c1cc(C)c(Oc2nc(Cc3ccc(Cl)cc3)ns2)cc1C [I-a] | 40% | 40% | –
OC(Cc1ccccc1Cl)(Cn1nc[nH]c1=S)C1(Cl)CC1 (centres unmarked) [1.41, prothioconazole] | – | – | 70%
CO/N=C(/C(=O)OC)c1ccccc1CO/N=C(\C)c1cccc(C(F)(F)F)c1 [3.17, trifloxystrobin] | – | 80% | –
Cn1cc(C(=O)Nc2ccc(F)cc2-c2ccc(Cl)c(Cl)c2)c(C(F)F)n1 [2.2, bixafen] | – | 10% | –
